This is an account of results in US6784175B2, “Use of substituted 1-amino-5-phenylpentane-3-ol and/or 1-amino-6-phenylhexane-3-ol compounds as medicaments” (Gruenenthal GmbH, priority 2000, dated 2004).

pKi: −log10 of the molar value. Structures can show the parent of a compound that is named as a salt.

This assay has as its system (+)-MK801 binding site of the ionotropic NMDA receptor. Put plainly: (3H)-(+)-MK801 receptor bonding test on rat cerebral membrane homogenates. The following applies: 1 nmol/l (3H)-(+)-MK801, rat brain membrane homogenate; for Percentage inhibition of (3H)-(+)-MK801 binding at 10 μM: 10 μmol/l compound, triple determinations; for pKi: calculated from IC50 by Cheng-Prusoff equation. Here is the method: Research to determine the NMDA antagonistic effect of each compound in general formula I was carried out on cerebral membrane homogenates (homogenate of rat brain without cerebellum, pons and medulla oblongata taken from male Wistar rats (Charles River, Sulzfeld, Germany)).
For this purpose, after separating the cerebellum, pons and medulla oblongata, freshly prepared rat brains were macerated in 50 mmol/l of tris/HCl (pH 7.7) with a Polytron homogeniser (model PT3000, Kinematika AG, Littau, Switzerland) at 6000 revolutions per minute (rpm) for 1 minute with ice cooling and centrifuged for 15 minutes at 4° C. and 60,000 g. After decanting and discarding the supernatant, again placing in 50 mmol/l of tris/HCl (pH 7.7) and macerating the membrane pellet with a homogeniser at 2000 rpm for 1 minute, it was centrifuged again for 15 minutes at 4° C. and 60,000 g. The supernatant was again discarding and the membrane pellet homogenised (2000 rpm for 1 minute) in 50 mmol/l of tris/HCl (pH 7.7) and frozen in aliquots at −70° C.
For the receptor bonding test, each aliquot was defrosted and then centrifuged for 15 minutes at 4° C. and 60,000 g. After decanting and discarding the supernatant, the membrane pellet was taken up with bonding test buffer and homogenised (2000 rpm for 1 minute). The bonding test buffer was 5 mmol/l tris/HCl (pH 7.7) supplemented with 30 μmol/l of glycine and 100 μmol/l of glutamic acid.
1 nmol/l of (^3H)-(+)-MK801 ((5R, 10S)-(+)-5-methyl-10,11-dihydro-5H-dibenzo(a,d)cycloheptane-5,10-imine was used as a radioactively marked ligand (NET-972, NEN, Cologne Germany). The proportion of unspecific bonding was determined in the presence of 10 μmol/l of non-radioactively marked (+)-MK801 (RBI/Sigma, Deisenhofen, Germany). In further batches, each of the compounds of general formula I were added in series of concentrations and the displacement of the radioactive ligand out of its specific bond to the NMDA receptor determined. All the batches were subjected to triple determinations. The batches were each incubated for 40 minutes at 25° C. in a water bath and then harvested for determination of the radioactive ligand bound to the cerebral membrane homogenate by means of filtration through glass-fibre filters (GF/B) (Whatman GF/B, Hassel, Munich, Germany). The radioactivity retained by the glass-fibre filter discs was measured in a β counter (Packard TRI-CARB Liquid Scintillation Analyser 2000CA, Packard Instrument, Meriden, Conn. 06450, USA) after adding a scintillator (“Ready Protein” scintillator, Beckmann Coulter GmhH, Krefeld, Germany).
The percentage inhibition of the specific bonding of the ligand (^3H)-(+)-MK801 in the presence of 10 μmol/l of each compound of general formula I resulting from the triple batches is used as a measure of the affinity of the compound for the (+)-MK801 binding site of the ionotropic NMDA receptor. From batches with concentration series of these compounds of general formula I, the IC50 values (concentration of substituted compounds with 50% displacement of radioactive ligand out of its specific bond) were calculated in accordance with the law of mass action using non-linear regression. From these IC50 values, the Kj values were calculated in accordance with the Cheng-Prusoff equation (Y. Cheng, W. H. Prusoff, 1973, Biochem. Pharmacol., 22, pp 3099-3108).

As usually defined, the pKi is the Ki on a negative log10 scale, so that one unit is a factor of ten. Turning to `Cc1ccccc1C(C1CCCCC1(O)CCc1ccccc1Cl)N(C)C` (single isomer, unassigned; (+)) [Example 49, (+)-15-1-[2-(2-chlorophenyl)ethyl]-2-(dimethylamino-o-tolylmethylcyclohexanol), hydrochloride], the “Percentage inhibition of (3H)-(+)-MK801 binding at 10 μM” value (“Percentage inhibition” below) (hydrochloride, 10 µM) was determined as 93%. Further, the pKi (hydrochloride) was 5.89.
Turning to `CN(C)C(c1ccccc1)C1CCCCC1(O)CCCc1ccccc1.Cl` (single isomer, unassigned; (+)) [Example 51, (+)-2-(dimethylaminophenylmethyl)-1-(3-phenylpropyl)cyclohexanol, hydrochloride], the “Percentage inhibition” value (hydrochloride, 10 µM) was 80%. In addition, the pKi (hydrochloride) is 5.64.
In the case of `CN(C)C(c1ccccc1Cl)C1CCCCC1(O)CCc1ccccc1F.Cl` (single isomer, unassigned; (+)) [Example 53, (+)-2-[(2-chlorophenyl)dimethylaminomethyl]-1-[2-(2-fluorophenyl)ethyl]cyclohexanol, hydrochloride], for the setting “hydrochloride, 10 µM”, the “Percentage inhibition” value is given as 104%. The pKi (hydrochloride) is 6.30.
As for `Cc1ccccc1C(C1CCCCC1(O)CCc1ccccc1Cl)N(C)C` (single isomer, unassigned; (-)) [Example 48, (−)-15-1-[2-(2-chlorophenyl)ethyl]-2-(dimethylamino-o-tolylmethylcyclohexanol), hydrochloride], the “Percentage inhibition” value (hydrochloride, 10 µM) was determined as 99%. The pKi (hydrochloride) was 6.40.
In the case of `CN(C)C(c1ccccc1)C1CCCCC1(O)CCCc1ccccc1.Cl` (single isomer, unassigned; (-)) [Example 50, (−)-2-(dimethylaminophenylmethyl)1-(3-phenylpropyl)cyclohexanol, hydrochloride], the “Percentage inhibition” value (hydrochloride, 10 µM) was determined as 87%. Moreover, the negative-log Ki (pKi) (hydrochloride) is 6.22.
Consider `CN(C)C(c1ccccc1Cl)C1CCCCC1(O)CCc1ccccc1F.Cl` (single isomer, unassigned; (-)) [Example 52, (−)-2-[(2-chlorophenyl)dimethylaminomethyl]-1-[2-(2-fluorophenyl)ethyl]cyclohexanol, hydrochloride], for which, for the setting “hydrochloride, 10 µM”, the “Percentage inhibition” value is recorded as 105%. For the same molecule, the pKi (hydrochloride) is 6.70.
In the same order, the values of `Cc1ccccc1C(C1CCCCC1(O)CCc1cccc(Cl)c1)N(C)C.Cl` (stereo not shown) [Example 16, 1-[2-(3-chlorophenyl)ethyl]-2-(dimethylamino-o-tolylmethyl)cyclohexanol, hydrochloride] are 92% and 5.72.
For the molecule `CN(C)C(c1ccccc1F)C1CCCCC1(O)CCc1ccc(F)cc1.Cl` (stereo not shown) [Example 17, 2-[dimethylamino-(2-fluorophenyl)methyl]-1-[2-(4-fluorophenyl)ethyl]cyclohexanol, hydrochloride], the “Percentage inhibition” value was 54% and the negative-log Ki (pKi) was 5.24.
For `Cc1ccccc1C(C1CCCCC1(O)CCc1ccc(F)cc1)N(C)C.Cl` (stereo not shown) [Example 18, 2-(dimethylamino-o-tolylmethyl)-1-[2-(4-fluorophenyl)ethyl]cyclohexanol, hydrochloride], in that order: 54% and 5.21.
As for `Cc1cccc(C(C2CCCCC2(O)CCc2ccccc2Cl)N(C)C)c1.Cl` (stereo not shown) [Example 20, 1-[2-(2-chlorophenyl)ethyl]-2-(dimethylamino-m-tolylmethyl)cyclohexanol, hydrochloride], the “Percentage inhibition” value was 62% and the pKi was 5.37.
Consider `CN(C)C(c1ccccc1F)C1CCCCC1(O)CCc1cccc(Cl)c1.Cl` (stereo not shown) [Example 21, 1-[2-(3-chlorophenyl)ethyl]-2-(dimethylamino-(2-fluorophenyl)methyl]cyclohexanol, hydrochloride], for which the “Percentage inhibition” value is reported as 90% and the pKi was 5.68.
